Legend:
OE19 (3A1) = target: T1, OE19 (3A1) (Homo sapiens, UniProt P30838); test: Cellular ALDEFLUOR assay in OE19 cells (preferential ALDH3A1 expression)
T1 sequence (P30838 1-453): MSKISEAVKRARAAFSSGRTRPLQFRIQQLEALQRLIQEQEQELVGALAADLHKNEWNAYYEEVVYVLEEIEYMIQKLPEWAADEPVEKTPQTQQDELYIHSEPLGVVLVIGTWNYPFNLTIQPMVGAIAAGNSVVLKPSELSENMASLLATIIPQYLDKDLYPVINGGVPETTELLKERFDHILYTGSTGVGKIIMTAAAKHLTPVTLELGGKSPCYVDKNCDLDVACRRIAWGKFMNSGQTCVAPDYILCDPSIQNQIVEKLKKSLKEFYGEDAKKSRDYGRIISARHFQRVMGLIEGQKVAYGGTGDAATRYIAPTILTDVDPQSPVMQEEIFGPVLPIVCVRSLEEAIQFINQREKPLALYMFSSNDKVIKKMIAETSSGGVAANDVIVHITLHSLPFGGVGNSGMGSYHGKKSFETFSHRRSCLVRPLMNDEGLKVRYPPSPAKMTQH

Human ALDH3A1 = target: T2, Human ALDH3A1 (Homo sapiens, UniProt P30838); test: ALDH3A1 biochemical assay (benzaldehyde/NADP+, diaphorase-resazurin readout, 1,536-well)
T2 sequence (P30838 1-453): T1 sequence (P30838 1-453)

[1] = Table S4, biochemical curve class
[2] = Table S5, biochemical curve class

Cc1cccc(CNC(=O)c2csc(N3CCN(c4ccc(Cl)cn4)CC3)n2)c1 [Compound 11]
AC50 (OE19 (3A1)): 3510 nM
Cell_Efficacy (OE19 (3A1); Table S4, OE19 cells): -68.27
Cell_CC-v2 (OE19 (3A1); Table S4, cellular curve class): -1.2
AC50 (Human ALDH3A1): 460 nM
Efficacy (Human ALDH3A1; Table S4, biochemical): -99.36
CC-v2 (Human ALDH3A1; [1]): -1.1
activity in the biochemical assay (Human ALDH3A1; in words): good activity

Cc1cccc(CNC(=O)c2csc(N3CCN(c4ccc(F)c(Cl)c4)CC3)n2)c1 [Compound 12]
AC50 (OE19 (3A1)): 990 nM
Cell_Efficacy (OE19 (3A1); Table S4, OE19 cells): -76.59
Cell_CC-v2 (OE19 (3A1); Table S4, cellular curve class): -1.1
AC50 (Human ALDH3A1): 510 nM
Efficacy (Human ALDH3A1; Table S4, biochemical): -99.84
CC-v2 (Human ALDH3A1; [1]): -1.1

Cc1cc(CNC(=O)c2csc(N3CCN(c4cccc(C(F)(F)F)c4)CC3)n2)ccc1Cl [Compound 16]
AC50 (OE19 (3A1)): 34.2 nM
Cell_Efficacy (OE19 (3A1); Table S5, OE19 cells): -81.01
Cell_CC-v2 (OE19 (3A1); Table S5, cellular curve class): -1.1
AC50 (Human ALDH3A1): 7.9 nM
Efficacy (Human ALDH3A1; Table S5, biochemical): -106.26
CC-v2 (Human ALDH3A1; [2]): -1.1

O=C(NCc1ccc2ccccc2c1)c1csc(N2CCN(c3cccc(C(F)(F)F)c3)CC2)n1 [Compound 17]
AC50 (OE19 (3A1)): 40.7 nM
Cell_Efficacy (OE19 (3A1); Table S5, OE19 cells): -93.35
Cell_CC-v2 (OE19 (3A1); Table S5, cellular curve class): -1.1
AC50 (Human ALDH3A1): 11.9 nM
Efficacy (Human ALDH3A1; Table S5, biochemical): -92.05
CC-v2 (Human ALDH3A1; [2]): -1.1

O=C(NCc1cccc(COc2ccccc2)c1)c1csc(N2CCN(c3cccc(C(F)(F)F)c3)CC2)n1 [Compound 18]
AC50 (OE19 (3A1)): 43.1 nM
Cell_Efficacy (OE19 (3A1); Table S5, OE19 cells): -79.42
Cell_CC-v2 (OE19 (3A1); Table S5, cellular curve class): -1.1
AC50 (Human ALDH3A1): 14.1 nM
Efficacy (Human ALDH3A1; Table S5, biochemical): -100.33
CC-v2 (Human ALDH3A1; [2]): -1.1

Cc1ccc(-c2cccc(CNC(=O)c3csc(N4CCN(c5cccc(C(F)(F)F)c5)CC4)n3)c2)cc1 [Compound 19]
AC50 (OE19 (3A1)): 10.2 nM
Cell_Efficacy (OE19 (3A1); Table S5, OE19 cells): -77.01
Cell_CC-v2 (OE19 (3A1); Table S5, cellular curve class): -1.1
AC50 (Human ALDH3A1): 23.7 nM
Efficacy (Human ALDH3A1; Table S5, biochemical): -83.86
CC-v2 (Human ALDH3A1; [2]): -1.1

O=C(NCc1cccc(N2CCC2=O)c1)c1csc(N2CCN(c3cccc(C(F)(F)F)c3)CC2)n1 [Compound 20]
AC50 (OE19 (3A1)): 10.8 nM
Cell_Efficacy (OE19 (3A1); Table S5, OE19 cells): -81.94
Cell_CC-v2 (OE19 (3A1); Table S5, cellular curve class): -1.2
AC50 (Human ALDH3A1): 63.1 nM
Efficacy (Human ALDH3A1; Table S5, biochemical): -96.26
CC-v2 (Human ALDH3A1; [2]): -1.1

Cc1cccc(CNC(=O)c2csc(N3CCN(c4ccc(C(F)(F)F)cn4)CC3)n2)c1 [NCGC01210237-01]
AC50 (OE19 (3A1)): 3130 nM
Cell_Efficacy (OE19 (3A1); Table S4, OE19 cells): -106.55
Cell_CC-v2 (OE19 (3A1); Table S4, cellular curve class): -1.3
AC50 (Human ALDH3A1): 730 nM
Efficacy (Human ALDH3A1; Table S4, biochemical): -94.33
CC-v2 (Human ALDH3A1; [1]): -1.1

Cc1cccc(CNC(=O)c2csc(N3CCN(c4cc(C(F)(F)F)nc5ccccc45)CC3)n2)c1 [NCGC01210239-01]
AC50 (OE19 (3A1)): 9880 nM
Cell_Efficacy (OE19 (3A1); Table S4, OE19 cells): -51.72
Cell_CC-v2 (OE19 (3A1); Table S4, cellular curve class): -2.4
AC50 (Human ALDH3A1): 810 nM
Efficacy (Human ALDH3A1; Table S4, biochemical): -79.44
CC-v2 (Human ALDH3A1; [1]): -1.1

Cc1cccc(CNC(=O)c2csc(N3CCN(c4ccc(C5(C#N)CC5)cc4)CC3)n2)c1 [NCGC01210256-01]
AC50 (OE19 (3A1)): 15700 nM
Cell_Efficacy (OE19 (3A1); Table S4, OE19 cells): -71.00
Cell_CC-v2 (OE19 (3A1); Table S4, cellular curve class): -1.4
AC50 (Human ALDH3A1): 14500 nM
Efficacy (Human ALDH3A1; Table S4, biochemical): -66.81
CC-v2 (Human ALDH3A1; [1]): -1.2

Cc1cccc(CNC(=O)c2csc(N3CCN(c4cccc(C(F)(F)F)n4)CC3)n2)c1 [NCGC01210535-01]
AC50 (OE19 (3A1)): 7850 nM
Cell_Efficacy (OE19 (3A1); Table S4, OE19 cells): -90.86
Cell_CC-v2 (OE19 (3A1); Table S4, cellular curve class): -1.1
AC50 (Human ALDH3A1): 580 nM
Efficacy (Human ALDH3A1; Table S4, biochemical): -96.11
CC-v2 (Human ALDH3A1; [1]): -1.1

Cc1cccc(CNC(=O)c2csc(N3CCN(c4ccc(C5(C#N)CCCC5)cc4)CC3)n2)c1 [NCGC01210598-01]
AC50 (OE19 (3A1)): 3930 nM
Cell_Efficacy (OE19 (3A1); Table S4, OE19 cells): -104.17
Cell_CC-v2 (OE19 (3A1); Table S4, cellular curve class): -2.1
AC50 (Human ALDH3A1): 1020 nM
Efficacy (Human ALDH3A1; Table S4, biochemical): -62.83
CC-v2 (Human ALDH3A1; [1]): -1.2

Cc1cccc(CNC(=O)c2csc(N3CCN(c4ccc(C5(C#N)CCCCC5)cc4)CC3)n2)c1 [NCGC01210611-01]
AC50 (OE19 (3A1)): 620 nM
Cell_Efficacy (OE19 (3A1); Table S4, OE19 cells): -33.71
Cell_CC-v2 (OE19 (3A1); Table S4, cellular curve class): -1.2
AC50 (Human ALDH3A1): 730 nM
Efficacy (Human ALDH3A1; Table S4, biochemical): -77.35
CC-v2 (Human ALDH3A1; [1]): -1.2

Cc1cccc(CNC(=O)c2csc(N3CCN(c4ncccc4C(F)(F)F)CC3)n2)c1 [NCGC01210654-01]
AC50 (OE19 (3A1)): 35100 nM
Cell_Efficacy (OE19 (3A1); Table S4, OE19 cells): -81.56
Cell_CC-v2 (OE19 (3A1); Table S4, cellular curve class): -2.2
AC50 (Human ALDH3A1): 1020 nM
Efficacy (Human ALDH3A1; Table S4, biochemical): -95.69
CC-v2 (Human ALDH3A1; [1]): -1.1

Cc1cccc(CNC(=O)c2csc(N3CCN(c4cccc(C#N)c4)CC3)n2)c1 [NCGC01210664-01]
AC50 (OE19 (3A1)): 11100 nM
Cell_Efficacy (OE19 (3A1); Table S4, OE19 cells): -103.93
Cell_CC-v2 (OE19 (3A1); Table S4, cellular curve class): -2.1
AC50 (Human ALDH3A1): 1020 nM
Efficacy (Human ALDH3A1; Table S4, biochemical): -83.70
CC-v2 (Human ALDH3A1; [1]): -1.1

Cc1cccc(CNC(=O)c2csc(N3CCN(c4cccc([S+](C)(=O)[O-])c4)CC3)n2)c1 [NCGC01210723-01]
AC50 (OE19 (3A1)): 1240 nM
Cell_Efficacy (OE19 (3A1); Table S4, OE19 cells): -75.10
Cell_CC-v2 (OE19 (3A1); Table S4, cellular curve class): -1.2
AC50 (Human ALDH3A1): 3640 nM
Efficacy (Human ALDH3A1; Table S4, biochemical): -72.64
CC-v2 (Human ALDH3A1; [1]): -1.2

Source: PMC13266984 (Journal of medicinal chemistry, 2026)
